Measurements as given in patent publication US8785457B2 (Cellzome Limited, priority 2009, dated 2014).

System: cytokine levels (TNFα, IL-2, IFNγ and IL-4)
Assay: Anti-CD3 induced cytokine release in the mouse
Format: in vivo
Conditions: 100 mg/kg p.o. 30 minutes before anti-CD3, blood 90 minutes after anti-CD3, compared to control group 2
Description: In this mouse model, T cells and NK cells were activated in situ by the intraperitoneal (i.p.) injection of an anti-CD3 antibody into mice that had been pre-treated for 30 minutes with certain compounds of the invention (100 mg/kg po administration). Blood samples were collected 90 minutes after anti-CD3 injection. Plasma samples were prepared and the cytokine levels (Tumor Necrosis factor alpha (TNFα), Interleukin-2 (IL-2), Interferon-gamma (IFNγ) and Interleukin-4 (IL-4)) were measured using a Cytometric Bead Array method.
A single dose of test compound was administered p.o. 30 minutes before anti-CD3 injection. 90 minutes after anti-CD3 injection blood samples were collected for cytokine analysis (approximately 400 μl whole blood anti-coagulated with Na-heparin) and stored frozen until use.
The cytokine measurement was done using the mouse Cytometric Bead Array (CBA) Th1/Th2 kit (BD Biosciences, San Diego, Calif., USA; catalogue number 551287) according to the manufacturer's instruction with the following modifications: all reagents were downscaled by a factor of 2 and the mixture of plasma, beads and detection reagents was done in 96-U-bottom plates. Standards and samples were acquired on a FACSCalibur® instrument (Becton Dickinson) using an HTS plate loader. Data were analysed with the CBA Software provided by Becton Dickinson which draws standard curves and converts mean fluorescence values into concentration values (pg/ml).
Animals: male C57BL/6J mice, 9 weeks old (Janvier, Le Genest St Isle, France).
Test compounds were dosed orally (p.o.) at 100 mg/kg (vehicle: 0.5% CMC, application volume 10 ml/kg).
Anti-CD3 antibody (BD Bioscience, catalogue number 553057): 200 μl of a 10 μg/ml solution in PBS were applied i.p. (2 μg per mouse).

CCOC(=O)N1Cc2nc(-c3ccc(NC(=O)NC4CC4)cc3F)nc(N3CCOC[C@@H]3C)c2C1 [Example 131, (S)-ethyl 2-(4-(3-cyclopropylureido)-2-fluorophenyl)-4-(3-methylmorpholino)-5H-pyrrolo[3,4-d]pyrimidine-6(7H)-carboxylate]
reduction: IFNγ plasma levels | IL-2 plasma levels | IL-4 plasma levels | TNFα plasma levels
